Assay results from PubChem BioAssay AID588711 (The Scripps Research Institute Molecular Screening Center, 2011).
Values joined by “and” are separate entries in the source; they are usually repeats but may differ in a detail not shown here. Equal entries are not always repeated. Active and inactive are the calls of the source. No rule for the calls is given here.

Molecular target: Insulin-degrading enzyme (Homo sapiens) (UniProt P14735)
Assay: inhibitors of recombinant IDE enzyme, late-stage follow-up, counter-screen for IDE inhibitor project, biochemical, fluorescence polarization (AID 588711)

Sequence of Insulin-degrading enzyme (Homo sapiens) (P14735 whole entry, looked up): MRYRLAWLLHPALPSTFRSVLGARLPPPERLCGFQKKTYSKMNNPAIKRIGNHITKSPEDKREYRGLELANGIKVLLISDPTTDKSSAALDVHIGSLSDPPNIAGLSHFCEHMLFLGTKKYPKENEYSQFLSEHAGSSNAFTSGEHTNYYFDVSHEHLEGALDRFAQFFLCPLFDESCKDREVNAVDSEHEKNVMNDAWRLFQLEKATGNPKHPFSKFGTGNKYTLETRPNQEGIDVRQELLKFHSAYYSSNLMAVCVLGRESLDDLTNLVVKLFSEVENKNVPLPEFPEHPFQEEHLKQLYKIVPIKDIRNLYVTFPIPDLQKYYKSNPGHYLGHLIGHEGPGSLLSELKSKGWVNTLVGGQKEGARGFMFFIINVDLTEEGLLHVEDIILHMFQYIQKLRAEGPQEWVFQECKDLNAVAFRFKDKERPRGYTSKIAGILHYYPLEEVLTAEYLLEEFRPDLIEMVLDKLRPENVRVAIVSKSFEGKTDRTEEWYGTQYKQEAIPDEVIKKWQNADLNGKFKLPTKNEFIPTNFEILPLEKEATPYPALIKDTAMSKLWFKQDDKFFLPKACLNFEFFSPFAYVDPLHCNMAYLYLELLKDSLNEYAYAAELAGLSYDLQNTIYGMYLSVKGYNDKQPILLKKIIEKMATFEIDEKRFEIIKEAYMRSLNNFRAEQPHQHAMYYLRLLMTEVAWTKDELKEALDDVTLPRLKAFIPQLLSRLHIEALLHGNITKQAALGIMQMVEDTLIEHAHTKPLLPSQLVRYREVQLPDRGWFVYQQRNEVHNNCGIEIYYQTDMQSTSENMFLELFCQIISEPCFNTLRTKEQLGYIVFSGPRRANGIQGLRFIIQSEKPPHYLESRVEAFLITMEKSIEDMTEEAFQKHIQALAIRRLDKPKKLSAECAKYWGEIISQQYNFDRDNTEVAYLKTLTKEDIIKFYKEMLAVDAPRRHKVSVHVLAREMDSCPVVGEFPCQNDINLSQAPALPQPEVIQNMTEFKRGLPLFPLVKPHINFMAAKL

| SMILES | IC50 |
| --- | --- |
| Cn1c(SCc2nc3ccccc3[nH]2)nnc1-c1cccc(Cl)c1 | > 54.7 µM (inactive) |
| Cc1ccc(C)c(N2C(=N)S/C(=C\c3ccc(-c4ccccc4C(=O)O)o3)C2=O)c1 | > 54.7 µM (inactive) |
| Cc1ccc(NC(=O)CSc2nnc(-c3cccc(Cl)c3)n2Cc2ccco2)c(C)c1 | > 54.7 µM (inactive) |
| Cc1ccc(-c2nc(C(=O)Nc3cccc(C(F)(F)F)c3)cs2)cc1 | > 54.7 µM (inactive) |
| O=C(Nc1cccc(C(F)(F)F)c1)c1csc(-c2cccc(C(F)(F)F)c2)n1 | > 54.7 µM (inactive) |
| Clc1cccc(-c2nnc(SCc3nc4ccccc4[nH]3)n2-c2ccccc2)c1 | > 54.7 µM (inactive) |
| Cc1cccc(-c2nnc(SCc3nc4ccccc4[nH]3)n2Cc2ccco2)c1 | 7.21 µM and 6.15 µM |
| O=C(CSc1nnc(-c2cccc(Cl)c2)n1Cc1ccco1)Nc1ccc2cn[nH]c2c1 | > 54.7 µM (inactive) |
| Cc1c(CCC(=O)NCCCn2ccnc2)c(=O)oc2cc3oc4c(c3cc12)CCCC4 | 6.14 µM |
| O=C(Nc1cc(C(F)(F)F)cc(C(F)(F)F)c1)c1csc(-c2ccncc2)n1 | > 54.7 µM (inactive) |
| O=C(CSc1nnc(-c2cccc(Cl)c2)n1Cc1ccco1)Nc1ccccc1C(F)(F)F | > 54.7 µM (inactive) |
| COc1ccc(NC(=O)CSc2nnc(CN3CCOCC3)n2C)cc1Cl | > 54.7 µM (inactive) |
| COc1ccc(-c2nc(C(=O)Nc3cccc(C(F)(F)F)c3)cs2)cc1 | > 54.7 µM (inactive) |
| COc1cccc(-c2nnc(SCc3nc4ccccc4[nH]3)n2Cc2ccco2)c1 | 5.9 µM |
| O=C(C1CC1)N1CCN(c2ccnc3cc(Cl)ccc23)CC1 | inactive |
| Nc1c(C(=O)Nc2nccs2)sc2nc(-c3cccs3)cc(C(F)(F)F)c12 | > 18.2 µM (inactive) |
| O=C(Nc1cccc(C(F)(F)F)c1)c1csc(-c2ccncc2)n1 | 2.8 µM |
| COc1ccc(C(=O)N2CCN(C(=O)C3COc4ccccc4O3)CC2)cc1OC (stereo not given) | inactive |
| Clc1cccc(-c2nnc(SCc3nc4ccccc4[nH]3)n2Cc2ccco2)c1 | 2.34 µM |
| Cn1c(=O)c(C(=O)CN2CCCc3ccccc32)c(N)n(Cc2ccccc2)c1=O | > 54.7 µM (inactive) |
| O=C(CSc1nnc(-c2cccc(Cl)c2)n1Cc1ccco1)c1ccc2ccccc2c1 | > 54.7 µM (inactive) |
| O=c1c2ccccc2sn1-c1cc(S(=O)(=O)N2CCOCC2)ccc1N1CCOCC1 | 1.71 µM |
| Cc1nc(-c2cccnc2)sc1C(=O)Nc1cccc(C(F)(F)F)c1 | > 54.7 µM (inactive) |
| O=C(Nc1cccc(C(F)(F)F)c1)c1csc(-c2ccccc2)n1 | > 54.7 µM (inactive) |
| O=C(Nc1ccc2oc(-c3cccnc3)nc2c1)c1ccc2c(c1)OCCO2 | > 54.7 µM (inactive) |
| CC(Sc1nnc(-c2cccnc2)n1-c1ccccc1F)C(=O)N1CCCc2ccccc21 (stereo not given) | > 54.7 µM (inactive) |
| O=C(Nc1cccc(C(F)(F)F)c1)c1csc(Cc2cccc(C(F)(F)F)c2)n1 | > 54.7 µM (inactive) |
| COc1cc(/C=C2\SC(=S)N(NC(C)=O)C2=O)ccc1OC(=O)c1ccco1 | inactive |
| O=C(CSc1nnc(-c2cccc(Cl)c2)n1Cc1ccco1)Nc1ccc2c(c1)OCCO2 | > 54.7 µM (inactive) |
| CCOc1ccc2[nH]c3c(N4CCN(C(=O)c5ccco5)CC4)ncnc3c2c1 | 8.54 µM |
